According to US7582645B2, “Pyrimidine derivatives for treatment of hyperproliferative disorders” (Bayer Pharmaceuticals Corporation, priority 2003, dated 2009):

System: HCT116 cells
Test: HCT116 cytotoxic activity assay (Alamar Blue, 72 h)
Type: cell-based
Conditions: Homo sapiens, HCT-116, 72 h compound exposure
Procedure: Representative compounds of this invention were tested for cytotoxicity using the above-described assay procedure with the following results: […]

[1] = greater than 500 nM but less than or equal to 2 μM

With NC(=O)c1cc(Oc2cccc(Nc3cc(-c4ccc(Cl)c(Cl)c4)nc(N)n3)c2)ccn1 [Example 303, 4-(3-{[2-amino-6-(3,4-dichlorophenyl)pyrimidin-4-yl]amino}phenoxy)pyridine-2-carboxamide] the IC50 (greater than 2 μM) was over 2000 nM.

Cc1cc(Oc2ccc(Nc3cc(-c4ccc(Oc5ccccc5)cc4)nc(N)n3)cc2)ccn1 [Example 304, N4*-{4-[(2-methylpyridin-4-yl)oxy]phenyl}-6-(4-phenoxyphenyl) pyrimidine-2,4-diamine] gave an IC50 [1] of 500 to 2000 nM.

Work on Cc1cc(Oc2ccc(Nc3cc(-c4cccc(N(C)C)c4)nc(N)n3)cc2)ccn1 [Example 305, 6-[3-(dimethylamino)phenyl]-N4*- {4-[(2-methylpyridin-4-yl)oxy]phenyl}pyrimidine-2,4-diamine] yielded an IC50 (less than or equal to 500 nM) of at most 500 nM.

Work on Cc1cc(Oc2ccc(Nc3cc(-c4cccc(O)c4)nc(N)n3)cc2)ccn1 [Example 306, 3-[2-amino-6-({4-[(2-methylpyridin-4-yl)oxy]phenyl}amino)pyrimidin-4-yl]phenol] yielded an IC50 [1] of 500 to 2000 nM.

Cc1cc(Oc2ccc(Nc3cc(-c4ccc(OC(F)(F)F)cc4)nc(N)n3)cc2)ccn1 [Example 307, N4*-{4-[(2-methylpyridin-4-yl)oxy]phenyl}-6-[4-(trifluoromethoxy)phenyl]pyrimidine-2,4-diamine] gave an IC50 (greater than 2 μM) of over 2000 nM.

CC(=O)Nc1ccc(-c2cc(Nc3ccc(Oc4ccnc(C)c4)cc3)nc(N)n2)cc1 [Example 308, N-{4-[2-amino-6-({4-[(2-methylpyridin-4-yl)oxy]phenyl}amino)pyrimidin-4-yl]phenyl} acetamide] was tested, and the IC50 [1] was 500 to 2000 nM.

With Cc1cc(Oc2ccc(Nc3cc(-c4ccccc4OC(F)(F)F)nc(N)n3)cc2)ccn1 [Example 309, N4-{4-[(2-methylpyridin-4-yl)oxy]phenyl}-6-[2-(trifluoromethoxy)phenyl]pyrimidine-2,4-diamine] the IC50 [1] was 500 to 2000 nM.

In the case of Cc1cc(Oc2ccc(Nc3cc(-c4ccc(O)cc4)nc(N)n3)cc2)ccn1 [Example 310, 4-[2-amino-6-({4-[(2-methylpyridin-4-yl)oxy]phenyl}amino)pyrimidin-4-yl]phenol], the IC50 (less than or equal to 500 nM) is reported as at most 500 nM.

COc1ccc(-c2cc(Nc3ccc(Oc4ccnc(C)c4)cc3)nc(N)n2)cn1 [Example 312, 6-(6-methoxypyridin-3-yl)-N4*-{4-[(2-methylpyridin-4-yl)oxy]phenyl} pyrimidine-2,4-diamine] showed an IC50 (less than or equal to 500 nM) of at most 500 nM.

In the case of Cc1cc(Oc2ccc(Nc3cc(-c4ccc(N)cc4)nc(N)n3)cc2)ccn1 [Example 313, 6-(4-aminophenyl)-N4*-{4-[(2-methylpyridin-4-yl)oxy]phenyl} pyrimidine-2,4-diamine], the IC50 (less than or equal to 500 nM) is reported as at most 500 nM.

Compound Cc1cc(Oc2ccc(Nc3cc(-c4cccc(C(F)(F)F)c4)nc(N)n3)cc2)ccn1 [Example 314, N4*-{4-[(2-methylpyridin-4-yl)oxy]phenyl}-6-[3-(trifluoromethyl)phenyl] pyrimidine-2,4-diamine] has an IC50 (greater than 2 μM) of over 2000 nM.

For Cc1cc(Oc2ccc(Nc3cc(-c4cccc(F)c4)nc(N)n3)cc2)ccn1 [Example 315, 6-(3-fluorophenyl)-N4*-{4-[(2-methylpyridin-4-yl)oxy]phenyl} pyrimidine-2,4-diamine], the IC50 (less than or equal to 500 nM) was at most 500 nM.

COc1cccc(-c2cc(Nc3ccc(Oc4ccnc(C)c4)cc3)nc(N)n2)c1 [Example 316, 6-(3-methoxyphenyl)-N4*-{4-[(2-methylpyridin-4-yl)oxy]phenyl} pyrimidine-2,4-diamine] gave an IC50 (less than or equal to 500 nM) of at most 500 nM.

For CCc1ccc(-c2cc(Nc3ccc(Oc4ccnc(C)c4)cc3)nc(N)n2)cc1 [Example 317, 6-(4-ethylphenyl)-N4*-{4-[(2-methylpyridin-4-yl)oxy]phenyl} pyrimidine-2,4-diamine], the IC50 (less than or equal to 500 nM) was at most 500 nM.

Cc1cc(Oc2ccc(Nc3cc(-c4ccc(N(C)C)cc4)nc(N)n3)cc2)ccn1 [Example 318, 6-[4-(dimethylamino)phenyl]-N4*- {4-[(2-methylpyridin-4-yl)oxy]phenyl}pyrimidine-2,4-diamine] showed an IC50 (less than or equal to 500 nM) of at most 500 nM.

COc1ccc(-c2cc(Nc3ccc(Oc4ccnc(C)c4)cc3)nc(N)n2)cc1OC [Example 319, 6-(3,4-dimethoxyphenyl)-N4*-{4-[(2-methylpyridin-4-yl)oxy]phenyl} pyrimidine-2,4-diamine] gave an IC50 [1] of 500 to 2000 nM.

Cc1cc(Oc2ccc(Nc3cc(-c4cccc(N)c4)nc(N)n3)cc2)ccn1 [Example 320, 6-(3-aminophenyl)-N4*-{4-[(2-methylpyridin-4-yl)oxy]phenyl} pyrimidine-2,4-diamine] showed an IC50 (less than or equal to 500 nM) of at most 500 nM.

With Cc1cc(Oc2ccc(Nc3cc(-c4ccoc4)nc(N)n3)cc2)ccn1 [Example 321, 6-(3-furyl)-N4*-{4-[(2-methylpyridin-4-yl)oxy]phenyl} pyrimidine-2,4-diamine] the IC50 (less than or equal to 500 nM) was at most 500 nM.

In the case of Cc1cc(Oc2ccc(Nc3cc(-c4ccccc4N)nc(N)n3)cc2)ccn1 [Example 322, 6-(2-aminophenyl)-N4*-{4-[(2-methylpyridin-4-yl)oxy]phenyl} pyrimidine-2,4-diamine], the IC50 [1] is reported as 500 to 2000 nM.

Cc1cc(Oc2ccc(Nc3cc(-c4ccc(C)c(N)c4)nc(N)n3)cc2)ccn1 [Example 323, 6-(3-amino-4-methylphenyl)-N4*-{4-[(2-methylpyridin-4-yl)oxy]phenyl} pyrimidine-2,4-diamine] was tested, and the IC50 (less than or equal to 500 nM) was at most 500 nM.

Cc1cc(Oc2ccc(Nc3cc(-c4cccc(OC(C)C)c4)nc(N)n3)cc2)ccn1 [Example 324, 6-(3-isopropoxyphenyl)-N4*-{4-[(2-methylpyridin-4-yl)oxy]phenyl} pyrimidine-2,4-diamine] showed an IC50 [1] of 500 to 2000 nM.

Compound Cc1cc(Oc2ccc(Nc3cc(-c4cccc(OC(F)(F)F)c4)nc(N)n3)cc2)ccn1 [Example 325, N4*-{4-[(2-methylpyridin-4-yl)oxy]phenyl}-6-[3-(trifluoromethoxy)phenyl]pyrimidine-2,4-diamine] has an IC50 [1] of 500 to 2000 nM.

For Nc1nc(Nc2ccc(Oc3ccnc(Cl)c3)cc2)cc(-c2ccc(OS(N)(=O)=O)cc2)n1 [Example 332, 4-[2-amino-6-({4-[(2-chloropyridin-4-yl)oxy]phenyl}amino)pyrimidin-4-yl]phenyl sulfamate], the IC50 (less than or equal to 500 nM) was at most 500 nM.
